Results from ChEMBL document CHEMBL1649515, “Heteroresistance to fluconazole in Cryptococcus neoformans is intrinsic and associated with virulence” (2009).
Activity calls are given as the source filed them. No cut-off for these calls is given here.

Experiments:
Streptomyces platensis = assay: Antimicrobial activity against Streptomyces platensis at 8 to 32 ug/ml; format: functional
Aspergillus fumigatus = assay: Antimicrobial activity against Aspergillus fumigatus at 8 to 32 ug/ml; format: functional, organism-based
Burkholderia sp. = assay: Antimicrobial activity against Burkholderia sp. at 8 to 32 ug/ml; format: functional
Cryptococcus neoformans [1] = assay: Antimicrobial activity against Cryptococcus neoformans serotype A; format: functional
Cryptococcus neoformans [2] = assay: Antimicrobial activity against Cryptococcus neoformans serotype D; format: functional

`OC(Cn1cncn1)(Cn1cncn1)c1ccc(F)cc1F` [FLUCONAZOLE] was tested, and the Activity (Streptomyces platensis) was “inactive”, the Activity (Aspergillus fumigatus) was “inactive” and the Activity (Burkholderia sp.) was “inactive”. It also gave an MIC (Cryptococcus neoformans [1]) of no less than 64 µg/mL and an MIC (Cryptococcus neoformans [2]) of no less than 64 µg/mL.
